Patent US10752640B2, “Compounds active towards bromodomains” (NUEVOLUTION A/S, priority 2014, dated 2020)

molecular target: BRD4 protein (Homo sapiens, UniProt O60885); assay: FRET assay, half maximal inhibitory concentration (IC50); format: binding; conditions: BRD4 protein 50 nM, Biotin-H4KAc4 peptide 12.5 nM; List of Classification
Procedure: The compounds were biologically evaluated by determining the half maximal inhibitory concentration (IC50) by FRET assay. The IC50 is a measure of the effectiveness of a substance in inhibiting a specific biological or biochemical function.
For IC50 determinations, dose-response curves were generated, using a top concentration of 50 μM compound in 12.5% DMSO, followed by 10-fold dilutions in 12.5% DMSO. The composition of the reaction buffer was 50 mM HEPES, pH 7.5; 100 mM NaCl, 0.05% CHAPS.
The reaction was run in a final volume of 25 μl. The BRD4 protein (16.5 μl) was added to wells of 384w white Optiplates (Perkin Elmer) (50 nM final concentration) and 1 μl of compound dilution of DMSO control. Incubation time was 30 minutes at room temperature. In the next step, 2.5 μl Biotin-H4KAc4 peptide (Millipore 13-379) was added to the wells (final concentration was 12.5 nM), and the plates were incubated for 30 minutes at room temperature. Detection was performed by addition of 5 μl of a mix of mAb GST-XL665 (Cisbio 61GSTXLB) (10 nM final concentration) and Streptavidin Cryptate (Cisbio 610SAKLB) (2.4 nM final conc.) in reaction buffer with 0.4M KF and 0.05% BSA). The plates were incubated for one hour prior to reading on an Envision reader (Perkin Elmer)
Data was analyzed using GraphPad Prism, and IC50 data was obtained using non-linear regression curve fit using log(inhibitor) vs response (variable slope). All compounds were considered active although classified (according to the half maximal inhibitory concentration (IC50) by FRET assay) as follows: […]

SMILES	IC50
Cc1cc(O)nc2ccc(NC(=O)c3cc(C(=O)N4CCOCC4)ccc3N3CCOCC3)cc12 [Compound-11, N-(2-hydroxy-4-methylquinolin-6-yl)-5-(morpholine-4-carbonyl)-2-morpholinobenzamide]	200 to 500 nM
Cc1cc(O)nc2ccc(NC(=O)c3cc(C(N)=O)ccc3N3CCOCC3)cc12 [Compound-12, N3-(2-hydroxy-4-methyl-6-quinolyl)-4-morpholino-benzene-1,3-dicarboxamide]	200 to 500 nM
Cc1cc(O)nc2ccc(NC(=O)c3cc(CO)ccc3N3CCCC3)cc12 [Compound-14, N-(2-hydroxy-4-methylquinlin-6-yl)-5-(hydroxymethyl)-2-(pyrrolidin-1-yl) benzamide]	200 to 500 nM
Cc1cc(O)nc2ccc(NC(=O)c3cc(S(=O)(=O)N(C)C)ccc3N3CCC(N(C)C)C3)cc12 (stereo not drawn) [Compound-16, 2-[3-(dimethylamino)pyrrolidin-1-yl]-5-(dimethylsulfamoyl)-N-(2-hydroxy-4-methyl-6-quinolyl)benzamide]	200 to 500 nM
Cc1cc(O)nc2ccc(NC(=O)c3cc(S(=O)(=O)N(C)C)ccc3NCCN(C)C)cc12 [Compound-18, 2-(2-dimethylaminoethylamino)-5-(dimethylsulfamoyl)-N-(2-hydroxy-4-methyl-6-quinolyl)benzamide]	> 10000 nM
Cc1cc(O)nc2ccc(NC(=O)c3cc(S(=O)(=O)N(C)C)ccc3NCCO)cc12 [Compound-19, 5-(dimethylsulfamoyl)-2-(2-hydroxyethylamino)-N-(2-hydroxy-4-methyl-6-quinolyl)benzamide]	> 10000 nM
Cc1cc(O)nc2ccc(NC(=O)c3cc(S(=O)(=O)N(C)C)ccc3N3CC(N(C)C)C3)cc12 [Compound-20, 2-[3-(dimethylamino)azetidin-1-yl]-5-(dimethylsulfamoyl)-N-(2-hydroxy-4-methyl-6-quinolyl)benzamide]	200 to 500 nM
Cc1cc(O)nc2ccc(N(C)C(=O)c3cc(S(=O)(=O)N(C)C)ccc3N3CCN(C)CC3)cc12 [Compound-21, 5-(N, N-dimethylsulfamoyl)-N-(2-hydroxy-4-methylquinolin-6-yl)-N-methyl-2-(4-methylpiperazin-1-yl) benzamide]	> 10000 nM
Cc1cc(O)nc2ccc(N(C)C(=O)c3cc(S(=O)(=O)N4CCOCC4)ccc3N3CCCC3)cc12 [Compound-22, N-(2-hydroxy-4-methylquinolin-6-yl)-N-methyl-5-(morpholinosulfonyl)-2-(pyrrolidin-1-yl) benzamide]	> 10000 nM
Cc1cc(O)nc2ccc(NC(=O)c3cc([N+](=O)[O-])cnc3N3CCCC3)cc12 [Compound-23, N-(2-hydroxy-4-methyl-6-quinolyl)-5-nitro-2-pyrrolidin-1-yl-pyridine-3-carboxamide]	1000 to 10000 nM
Cc1cc(O)nc2ccc(NC(=O)c3cc(N)cnc3N3CCCC3)cc12 [Compound-24, 5-amino-N-(2-hydroxy-4-methyl-6-quinolyl)-2-pyrrolidin-1-yl-pyridine-3-carboxamide]	< 200 nM
Cc1cc(O)nc2ccc(NC(=O)c3cc(NCC(N)=O)cnc3N3CCCC3)cc12 [Compound-25, 5-[(2-amino-2-oxo-ethyl)amino]-N-(2-hydroxy-4-methyl-6-quinolyl)-2-pyrrolidin-1-yl-pyridine-3-carboxamide]	200 to 500 nM
COCC1CCCN1c1ccc(CN2CCOCC2)cc1C(=O)Nc1ccc2nc(O)cc(C)c2c1 (stereo not drawn) [Compound-26, N-(2-hydroxy-4-methylquinolin-6-yl)-2-(2-(methoxymethyl)pyrrolidin-1-yl)-5-(morpholinomethyl) benzamide]	< 200 nM
Cc1cc(O)nc2ccc(NC(=O)c3cc(CN4CCOCC4)ccc3N3CCCC3c3cc[nH]n3)cc12 (stereo not drawn) [Compound-27, 2-(2-(1H-pyrazol-3-yl)pyrrolidin-1-yl)-N-(2-hydroxy-4-methylquinolin-6-yl)-5-(morpholinomethyl) benzamide]	1000 to 10000 nM
O=C(Nc1ccc2nc(O)cc(C(F)(F)F)c2c1)c1cc(CN2CCOCC2)ccc1N1CCCC1 [Compound-28, N-(2-hydroxy-4-(trifluoromethyl)quinolin-6-yl)-5-(morpholinomethyl)-2-(pyrrolidin-1-yl) benzamide]	500 to 1000 nM
Cc1cc2nc(O)cc(C)c2cc1NC(=O)c1cc(CN2CCOCC2)ccc1N1CCCC1 [Compound-29, N-(2-hydroxy-4,7-dimethylquinolin-6-yl)-5-(morpholinomethyl)-2-(pyrrolidin-1-yl)benzamide]	< 200 nM
Cc1cc(O)nc2ccc(NC(=O)c3cc(CN4CCOCC4)ccc3N3CCCC3CO)cc12 (stereo not drawn) [Compound-30, N-(2-hydroxy-4-methylquinolin-6-yl)-2-(2-(hydroxymethyl)pyrrolidin-1-yl)-5-(morpholinomethyl) benzamide]	< 200 nM
Cc1cc(O)nc2ccc(NC(=O)c3cc(CN4CCOCC4)ccc3N3CCC(O)C3)cc12 (stereo not drawn) [Compound-31, N-(2-hydroxy-4-methyl-6-quinolyl)-2-(3-hydroxypyrrolidin-1-yl)-5-(morpholinomethyl)benzamide]	< 200 nM
Cc1cc(O)nc2ccc(NC(=O)c3cc(CN4CCOCC4)ccc3N3CCCC3CN(C)C)cc12 (stereo not drawn) [Compound-32, 2-(2-((dimethylamino)methyl)pyrrolidin-1-yl)-N-(2-hydroxy-4-methylquinolin-6-yl)-5-(morpholinomethyl) benzamide]	< 200 nM
Cc1cc(O)nc2ccc(NC(=O)c3nc(-c4nnn[nH]4)ccc3N3CCCC3)cc12 [Compound-33, N-(2-hydroxy-4-methylquinolin-6-yl)-3-(pyrrolidin-1-yl)-6-(1H-tetrazol-5-yl) picolinamide]	1000 to 10000 nM
Cc1cc(O)nc2ccc(NC(=O)c3cc(CN4CCOCC4)ccc3N3CCCC3=O)cc12 [Compound-34, N-(2-hydroxy-4-methylquinolin-6-yl)-5-(morpholinomethyl)-2-(2-oxopyrrolidin-1-yl) benzamide]	500 to 1000 nM

Next, values leading:

IC50	SMILES
< 200 nM	Cc1cc(O)nc2ccc(NC(=O)c3cc(CN4CCNCC4)ccc3N3CCCC3)cc12 [Compound-2, N-(2-hydroxy-4-methylquinolin-6-yl)-5-(piperazin-1-ylmethyl)-2-(pyrrolidin-1-yl)benzamide]
< 200 nM	Cc1cc(O)nc2ccc(NC(=O)c3cc(CN4CCOCC4)ccc3N3CCCC3)cc12 [Compound-3, N-(2-hydroxy-4-methylquinolin-6-yl)-5-(morpholinomethyl)-2-(pyrrolidin-1-yl)benzamide]
< 200 nM	CC(=O)N1CCN(Cc2ccc(N3CCCC3)c(C(=O)Nc3ccc4nc(O)cc(C)c4c3)c2)CC1 [Compound-4, 5-[(4-acetylpiperazin-1-yl)methyl]-N-(2-hydroxy-4-methyl-6-quinolyl)-2-pyrrolidin-1-yl-benzamide]
< 200 nM	Cc1cc(O)nc2ccc(NC(=O)c3cc(S(=O)(=O)N4CCN(C)CC4)ccc3N3CCOCC3)cc12 [Compound-5, N-(2-hydroxy-4-methylquinolin-6-yl)-5-(4-methylpiperazin-1-ylsulfonyl)-2-morpholino benzamide]
< 200 nM	Cc1cc(O)nc2ccc(NC(=O)c3cc(S(=O)(=O)N4CCC(N(C)C)C4)ccc3N3CCOCC3)cc12 (stereo not drawn) [Compound-6, 5-[3-(dimethylamino)pyrrolidin-1-yl]sulfonyl-N-(2-hydroxy-4-methyl-6-quinolyl)-2-morpholino-benzamide]
< 200 nM	Cc1cc(O)nc2ccc(NC(=O)c3cc(S(=O)(=O)N4CC(N(C)C)C4)ccc3N3CCOCC3)cc12 [Compound-7, 5-[3-(dimethylamino)azetidin-1-yl]sulfonyl-N-(2-hydroxy-4-methyl-6-quinolyl)-2-morpholino-benzamide]
< 200 nM	Cc1cc(O)nc2ccc(NC(=O)c3cc(S(=O)(=O)N4CC(N)C4)ccc3N3CCOCC3)cc12 [Compound-8, 1-(3-(2-hydroxy-4-methylquinolin-6-ylcarbamoyl)-4-morpholinophenylsulfonyl) azetidin-3-aminium 2,2,2-trifluoroacetate]
< 200 nM	Cc1cc(O)nc2ccc(NC(=O)c3cc(C(=O)N(C)C)ccc3N3CCOCC3)cc12 [Compound-9, N3-(2-hydroxy-4-methyl-6-quinolyl)-N1,N1-dimethyl-4-morpholino-benzene-1,3-dicarboxamide]
< 200 nM	Cc1cc(O)nc2ccc(NC(=O)c3cc(C(=O)N4CCN(C)CC4)ccc3N3CCOCC3)cc12 [Compound-10, N-(2-hydroxy-4-methyl-6-quinolyl)-5-(4-methylpiperazine-1-carbonyl)-2-morpholino-benzamide]
< 200 nM	COCc1ccc(N2CCCC2)c(C(=O)Nc2ccc3nc(O)cc(C)c3c2)c1 [Compound-13, N-(2-hydroxy-4-methylquinlin-6-yl)-5-(methoxymethyl)-2-(pyrrolidin-1-yl) benzamide]
< 200 nM	Cc1cc(O)nc2ccc(NC(=O)c3cc(S(=O)(=O)N(C)C)ccc3N3CCN(C)CC3)cc12 [Compound-15, 5-(N, N-dimethylsulfamoyl)-N-(2-hydroxy-4-methylquinolin-6-yl)-2-(4-methylpiperazin-1-yl) benzamide]
< 200 nM	Cc1cc(O)nc2ccc(NC(=O)c3cc(S(=O)(=O)N(C)C)ccc3N3CCC(O)C3)cc12 (stereo not drawn) [Compound-17, 5-(dimethylsulfamoyl)-N-(2-hydroxy-4-methyl-6-quinolyl)-2-(3-hydroxypyrrolidin-1-yl)benzamide]
